The values that follow come from patent US7446199B2, “Compositions useful as inhibitors of protein kinases” (Vertex Pharmaceuticals Incorporated, priority 2003, dated 2008).

As usually defined, the pKi is −log10 of the Ki, conventionally taken in molar units. Low values mean a large Ki, high ones a small Ki.

Molecules are shown by their SMILES. pKi: −log10 of the molar value.

For one test, the target named is SYK (Homo sapiens, UniProt P43405). Put plainly: SYK enzyme assay, coupled enzyme assay. The test is classed as biochemical. The settings on record: 200 μM ATP, 4 μM poly Gly-Tyr peptide, 30° C. On the procedure: Compounds were screened for their ability to inhibit SYK using a standard coupled enzyme assay (Fox et al., Protein Sci. 1998, 7, 2249). Reactions were carried out in 100 mM HEPES (pH 7.5), 10 mM MgCl2, 25 mM NaCl, 1 mM DTT and 1.5% DMSO. Final substrate concentrations in the assay were 200 μM ATP (Sigma chemical Co.) and 4 μM poly Gly-Tyr peptide (Sigma Chemical Co.). Assays were carried out at 30° C. and 200 nM SYK. Final concentrations of the components of the coupled enzyme system were 2.5 mM phosphoenolpyruvate, 300 μM NADH, 30 μg/ml pyruvate kinase and 10 μg/ml lactate dehydrogenase.
An assay stock buffer solution was prepared containing all of the reagents listed above, with the exception of SYK, DTT, and the test compound of interest of the present invention. 56 μl of the test reaction was placed in a 96 well plate followed by the addition of 1 μl of 2 mM DMSO stock containing the test compound of the present invnetion (final compound concentration 30 μM). The plate was pre-incubated for ˜10 minutes at 30° C. and the reaction initiated by the addition of 10 μl of enzyme (final concentration 25 nM). Rates of reaction were obtained using a BioRad Ultramark plate reader (Hercules, Calif.) over a 5 minute read time at 30° C., and Ki values for the compounds of the present invention were determined according to standard methods.

The target of a further test is T1, TAK1A-TAB fusion protein (Homo sapiens, UniProt O43318).
T1 construct: using 20 nM TAK1A-TAB fusion protein
T1 sequence (O43318 with tags, fused parts or gaps isoform O43318-2 limits assumed): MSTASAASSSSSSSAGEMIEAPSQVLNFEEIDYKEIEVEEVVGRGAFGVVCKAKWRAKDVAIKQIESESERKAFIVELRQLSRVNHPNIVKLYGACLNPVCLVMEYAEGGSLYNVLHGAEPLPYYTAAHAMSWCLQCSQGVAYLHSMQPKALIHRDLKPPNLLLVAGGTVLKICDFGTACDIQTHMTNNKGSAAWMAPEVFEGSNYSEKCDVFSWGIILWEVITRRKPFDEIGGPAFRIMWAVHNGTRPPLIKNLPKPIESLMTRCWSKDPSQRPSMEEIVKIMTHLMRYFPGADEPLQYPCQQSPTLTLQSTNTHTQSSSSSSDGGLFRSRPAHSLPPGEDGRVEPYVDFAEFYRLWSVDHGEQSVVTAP
Put plainly: TAK-1 inhibition assay, radiometric filter binding assay. It counts as biochemical. The settings on record: 50 μM ATP, 12 μM bovine myelin basic protein, 20 nM TAK1A-TAB fusion protein. On the procedure: Compounds were screened for their ability to inhibit TAK1A kinase activity using a radiometric filter binding assay. Reactions were carried out in a solution containing Buffer A (100 mM HEPES (pH 7.5), 10 mM MgCl2), 25 mM NaCl, 2 mM DTT, and 1.5% DMSO. Final substrate concentrations in the assay were 50 μM ATP (a mixture of unlabeled ATP (Sigma Chemicals, St Louis, Mo.) and ^33P-labeled ATP (PerkinElmer Life Sciences, Boston, Mass.) for a final specific activity of 50 Ci/mol), and 12 μM bovine myelin basic protein (MBP, Vertex Pharmaceuticals, Cambridge, Mass.). Reactions were carried out at ambient temperature (˜20° C.) using 20 nM TAK1A-TAB fusion protein. Under these conditions the extent of reaction is linear with time for a period of 2 hours.
A test compound of the present invention (1 μL in DMSO) was combined with ATP and Buffer A in a final volume of 47 μL in a 96 well plate. Typically, a 6 point titration was conducted by preparing serial dilutions (from 10 mM compound stocks) with DMSO of the test compounds of the present invention in daughter plates, for final concentrations spanning 0.046 μM to 3.73 μM. The reaction was initiated by the addition of 20 μl of an enzyme stock solution consisting of TAK1A-TAB fusion (described by Sugita, T. et al. in Biochem. Biophys. Res. Comm. 2002, 297, 1277-1281), MBP, Buffer A, NaCl, and DTT. The reaction was allowed to proceed for two hours at ambient temperature, then quenched with an equal volume of 10 mM unlabeled ATP in 10% trichloroacetic acid. A 110 μL aliquot of the quenched reaction was transferred to a Multiscreen PH filter plate (Millipore, Billerica, Mass.) and allowed to incubate at ambient temperature overnight (typically 16-20 hours). Following incubation the filter plates were washed with 3×150 μL aliquots of 5% trichloroacetic acid using a modified Biotek Elx405 plate washer. A 70 μL aliquot of Microscint 20 scintillation fluid (PerkinElmer) was added to each well, and the plate was then sealed and read on a TopCount NXT microplate scintillation counter (PerkinElmer). The Ki values were determined from the rate data as a function of inhibitor concentration.

For the compound `CN(C)Cc1ccc(-c2cnc3[nH]cc(-c4oncc4-c4cccc(F)c4F)c3c2)cc1` [Compound 91, (4-{3-[4-(2,3-Difluoro-phenyl)-isoxazol-5-yl]-1H-pyrrolo[2,3-b]pyridin-5-yl}-benzyl)-dimethyl-amine], the pKi on SYK was 4.90 to 6.00.

`COc1cnc2[nH]cc(-c3oncc3-c3cccc(F)c3F)c2c1` [Compound 38, 3-[4-(2,3-Difluoro-phenyl)-isoxazol-5-yl]-5-methoxy-1H-pyrrolo[2,3-b]pyridine] gave a pKi on SYK of 4.90 to 6.00.

Turning to `CN(C)Cc1ccc(-c2cnc3[nH]cc(-c4oncc4-c4cccc(F)c4F)c3c2)nc1` [Compound 84, (6-{3-[4-(2,3-Difluoro-phenyl)-isoxazol-5-yl]-1H-pyrrolo[2,3-b]pyridin-5-yl}-pyridin-3-ylmethyl)-dimethyl-amine], the pKi at TAK1A-TAB fusion protein is 6.00 to 6.70; at SYK it was 4.90 to 6.00.

At SYK, `Oc1cnc2[nH]cc(-c3oncc3-c3cccc(F)c3F)c2c1` [Compound 43, 3-[4-(2,3-Difluoro-phenyl)-isoxazol-5-yl]-1H-pyrrolo[2,3-b]pyridin-5-ol] showed a pKi of 6.00 to 6.70.

`Fc1cccc(-c2cnoc2-c2c[nH]c3ncc(-c4c[nH]cn4)cc23)c1F` [Compound 76, 3-[4-(2,3-Difluoro-phenyl)-isoxazol-5-yl]-5-(3H-imidazol-4-yl)-1H-pyrrolo[2,3-b]pyridine]: the pKi on SYK was 4.90 to 6.00.

Consider `Fc1cccc(-c2cnoc2-c2c[nH]c3ncc(-c4ccc(CN5CCCC5)cc4)cc23)c1F` [Compound 93, 3-[4-(2,3-Difluoro-phenyl)-isoxazol-5-yl]-5-(4-pyrrolidin-1-ylmethyl-phenyl)-1H-pyrrolo[2,3-b]pyridine], for which the pKi at SYK is 4.90 to 6.00.

As to `CN(C)c1cccc(-c2cnc3[nH]cc(-c4oncc4-c4cccc(F)c4F)c3c2)c1` [Compound 61, (3-{3-[4-(2,3-Difluoro-phenyl)-isoxazol-5-yl]-1H-pyrrolo[2,3-b]pyridin-5-yl}-phenyl)-dimethyl-amine], the pKi is 6.00 to 6.70 at TAK1A-TAB fusion protein and 4.90 to 6.00 at SYK.

At SYK, `O=c1ccc(-c2cnc3[nH]cc(-c4oncc4-c4cccc(F)c4F)c3c2)c[nH]1` [Compound 67, 5-{3-[4-(2,3-Difluoro-phenyl)-isoxazol-5-yl]-1H-pyrrolo [2,3-b]pyridin-5-yl}-1H-pyridin-2-one] had a pKi of 6.00 to 6.70.

Consider `Fc1cccc(-c2cnoc2-c2c[nH]c3ncc(-c4ccc(N5CCNCC5)cc4)cc23)c1F` [Compound 68, 3-[4-(2,3-Difluoro-phenyl)-isoxazol-5-yl]-5-(4-piperazin-1-yl-phenyl)-1H-pyrrolo[2,3-b]pyridine], for which the pKi is > 6.70 at TAK1A-TAB fusion protein and 6.00 to 6.70 on SYK.

`Cc1noc(-c2c[nH]c3ncccc23)c1-c1cccc(F)c1F` [Compound 134, 3-[4-(2,3-Difluoro-phenyl)-3-methyl-isoxazol-5-yl]-1H-pyrrolo[2,3-b]pyridine] gave a pKi at SYK of 4.90 to 6.00.

On to `Fc1c(Cl)cccc1-c1cnoc1-c1c[nH]c2ncccc12` [Compound 42, 3-[4-(3-Chloro-2-fluoro-phenyl)-isoxazol-5-yl]-1H-pyrrolo[2,3-b]pyridine], for which, on SYK, the pKi is 4.90 to 6.00.

In turn, `Fc1cccc(-c2cnoc2-c2c[nH]c3ncc(-c4ccccn4)cc23)c1F` [Compound 73, 3-(4-(2,3-Difluoro-phenyl)-isoxazol-5-yl)-5-pyridin-2-yl-1H-pyrrolo[2,3-b]pyridine] showed a pKi at SYK of 4.90 to 6.00.

On SYK, `Nc1cccc(-c2cnc3[nH]cc(-c4oncc4-c4cccc(F)c4F)c3c2)c1` [Compound 86, 3-{3-[4-(2,3-Difluoro-phenyl)-isoxazol-5-yl]-1H-pyrrolo [2,3-b]pyridin-5-yl}-phenylamine] showed a pKi of 6.00 to 6.70.

`CN1CCN(c2ccc(-c3cnc4[nH]cc(-c5oncc5-c5cccc(F)c5F)c4c3)cn2)CC1` [Compound 71, 3-[4-(2,3-Difluoro-phenyl)-isoxazol-5-yl]-5-[6-(4-methyl-piperazin-1-yl)-pyridin-3-yl]-1H-pyrrolo[2,3-b]pyridine]: the pKi was > 6.70 on TAK1A-TAB fusion protein and 4.90 to 6.00 at SYK.

Turning to `Fc1cccc(-c2cnoc2-c2c[nH]c3ncc(Br)cc23)c1F` [Compound 37, 5-Bromo-3-[4-(2,3-difluoro-phenyl)-isoxazol-5-yl]-1H-pyrrolo[2,3-b]pyridine], the pKi on SYK is 4.90 to 6.00.

In the case of `Fc1cccc(-c2cnoc2-c2c[nH]c3ncc(/C=C/n4cncn4)cc23)c1F` [Compound 133, 3-[4-(2,3-Difluoro-phenyl)-isoxazol-5-yl]-5-(2-[1,2,4]triazol-1-yl-vinyl)-1H-pyrrolo[2,3-b]pyridine], the figures for the pKi on TAK1A-TAB fusion protein and on SYK were 6.00 to 6.70 and 4.90 to 6.00, respectively.

Compound `Nc1ccc(-c2cnc3[nH]cc(-c4oncc4-c4cccc(F)c4F)c3c2)cc1` [Compound 90, 4-{3-[4-(2,3-Difluoro-phenyl)-isoxazol-5-yl]-1H-pyrrolo [2,3-b]pyridin-5-yl}-phenylamine] gave a pKi at SYK of 6.00 to 6.70.

`Clc1cccc(-c2cnoc2-c2c[nH]c3ncc(-c4cccnc4)cc23)c1Cl` [Compound 99, 3-[4-(2,3-Dichloro-phenyl)-isoxazol-5-yl]-5-pyridin-3-yl-1H-pyrrolo[2,3-b]pyridine]: the pKi on TAK1A-TAB fusion protein and on SYK was 6.00 to 6.70 each time.

For `Cc1noc(-c2c[nH]c3ncc(-c4ccc(N5CCN(C)CC5)cc4)cc23)c1-c1cccc(F)c1F` [Compound 135, 3-[4-(2,3-Difluoro-phenyl)-3-methyl-isoxazol-5-yl]-5-[4-(4-methyl-piperazin-1-yl)-phenyl]-1H-pyrrolo[2,3-b]pyridine], the pKi on TAK1A-TAB fusion protein is > 6.70; at SYK, 6.00 to 6.70.

For `CN(C)c1ccc(-c2cnc3[nH]cc(-c4nncn4-c4cccc(F)c4F)c3c2)cc1` [Compound 106, (4-{3-[4-(2,3-Difluoro-phenyl)-4H-[1,2,4]triazol-3-yl]-1H-pyrrolo[2,3-b]pyridin-5-yl}-phenyl)-dimethyl-amine], the pKi on TAK1A-TAB fusion protein was 6.00 to 6.70; on SYK, 4.90 to 6.00.

Consider `CN(C)Cc1ccnc(-c2cnc3[nH]cc(-c4oncc4-c4cccc(F)c4F)c3c2)c1` [Compound 82, (2-{3-[4-(2,3-Difluoro-phenyl)-isoxazol-5-yl]-1H-pyrrolo[2,3-b]pyridin-5-yl}-pyridin-4-ylmethyl)-dimethyl-amine], for which the pKi on SYK was 4.90 to 6.00.

The compound `CC(=O)Nc1cccc(-c2cnc3[nH]cc(-c4oncc4-c4cccc(F)c4F)c3c2)c1` [Compound 65, N-(3-{3-[4-(2,3-Difluoro-phenyl)-isoxazol-5-yl]-1H-pyrrolo[2,3-b]pyridin-5-yl}-phenyl)-acetamide] showed a pKi on SYK of 4.90 to 6.00.

As for `CN(C)c1ccc(-c2cnc3[nH]cc(-c4oncc4-c4cccc(F)c4F)c3c2)cc1` [Compound 88, (4-{3-[4-(2,3-Difluoro-phenyl)-isoxazol-5-yl]-1H-pyrrolo[2,3-b]pyridin-5-yl}-phenyl)-dimethyl-amine], the pKi at SYK was 4.90 to 6.00.

For `Fc1cccc(-c2cnoc2-c2c[nH]c3ncccc23)c1F` [Compound 1, 3-[4-(2,3-Difluoro-phenyl)-isoxazol-5-yl]-1H-pyrrolo[2,3-b]pyridine], the pKi at SYK was 6.00 to 6.70.
